Experimental data as given in ChEMBL document CHEMBL1201862, “PubChem BioAssay data set” (2004).
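Growth conditions: 96-well plates. Treatment: test compound, 48 hours, 5 concentrations. Analysis: linear interpolation between bracketing concentrations; unreached endpoints set to highest concentration. Abbreviation: GI50, concentration required for 50% inhibition of growth.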 Calls of active or inactive are those of the source. No stated cut-off is given here; in the data, active = GI50 up to about 1.1 µM and inactive = higher.

Tests used:
Assay in all cases: DTP human tumour cell line panel, 48 h
[1] = test system: 786-0
[2] = test system: ACHN
[3] = test system: DLD-1
[4] = test system: HCC 2998
[5] = test system: HL-60
[6] = test system: HOP-62
[7] = test system: HT-29
[8] = test system: K562
[9] = test system: M14
[10] = test system: OVCAR-3
[11] = test system: SF-268
[12] = test system: SF-539
[13] = test system: SK-MEL-28
[14] = test system: SNB-19
[15] = test system: SNB-75
[16] = test system: SW-620
[17] = test system: U-251
[18] = test system: UACC-257
[19] = test system: UACC-62

Measured: GI50

CCCCCCCCCC(=O)CC(=O)c1c(O)cccc1O
inactive: [1] 18.7 µM | [2] 27.4 µM | [3] 39.5 µM | [4] 44.6 µM | [5] 21.4 µM | [6] 85.7 µM | [7] 27.3 µM | [8] 27.7 µM | [9] 22 µM | [10] 29.2 µM | [11] 33.8 µM | [12] 45.4 µM | [13] 62.7 µM | [14] 53.1 µM | [15] 28 µM | [16] 28.8 µM | [17] 24.9 µM | [18] 38.2 µM | [19] 33.4 µM

COc1nc2c(nc(N)n2C2OC(CO)C(O)C(O)C2O)c(=O)n1C (centres undefined)
inactive: [1] > 100 µM | [2] > 100 µM | [3] > 100 µM | [4] > 100 µM | [5] > 100 µM | [6] > 100 µM | [7] > 100 µM | [8] > 100 µM | [9] > 100 µM | [10] > 100 µM | [11] > 100 µM | [12] > 100 µM | [13] > 100 µM | [14] > 100 µM | [15] > 100 µM | [16] > 100 µM | [17] > 100 µM | [18] > 100 µM | [19] > 100 µM

O=C(/C=C/c1ccc(OCC(=O)N2CCN(c3ccccc3)CC2)cc1)c1ccccc1
inactive: [1] 14.6 µM | [2] 19.7 µM | [3] 7.31 µM | [4] 45.4 µM | [5] 4.95 µM | [6] 32.8 µM | [7] 4.33 µM | [8] 3.18 µM | [9] 29.8 µM | [10] 13.2 µM | [11] 26.7 µM | [12] 16.9 µM | [13] 16 µM | [14] 20.1 µM | [15] 17.9 µM | [16] 3.13 µM | [17] 7.14 µM | [18] 17.1 µM | [19] 17.8 µM

CNC(=S)/N=C(\N)N(C)C
inactive: [1] > 100 µM | [2] > 100 µM | [3] > 100 µM | [4] > 100 µM | [5] > 100 µM | [6] > 100 µM | [7] > 100 µM | [8] > 100 µM | [9] > 100 µM | [10] > 100 µM | [11] > 100 µM | [12] > 100 µM | [13] > 100 µM | [14] > 100 µM | [15] > 100 µM | [16] > 100 µM | [17] > 100 µM | [18] > 10 µM | [19] > 100 µM

CC(C)C(=O)N1Cc2cc(Cl)cc(Cl)c2OC(=O)c2ccccc21
inactive: [1] 35 µM | [2] 24.5 µM | [3] 29.9 µM | [4] 28.4 µM | [5] 22.6 µM | [6] 31.2 µM | [7] 34 µM | [8] 51.1 µM | [9] 25.8 µM | [10] 22 µM | [11] 19.6 µM | [12] 18.7 µM | [13] 42.4 µM | [14] 35.2 µM | [15] 30.3 µM | [16] 33 µM | [18] 17.2 µM | [19] 19.8 µM

CCOC(=O)NC(=O)c1cn(CCCCCCCCCCC(=O)NCCCN2CCN(CCCNC(=O)CCCCCCCCCCn3cc(C(=O)NC(=O)OCC)c(=O)[nH]c3=O)CC2)c(=O)[nH]c1=O
inactive: [1] > 100 µM | [2] > 100 µM | [3] > 100 µM | [4] > 100 µM | [5] > 100 µM | [6] > 10 µM | [7] > 100 µM | [8] > 100 µM | [9] > 10 µM | [10] > 10 µM | [11] > 100 µM | [12] > 100 µM | [13] > 100 µM | [14] > 100 µM | [15] > 100 µM | [16] > 100 µM | [17] > 100 µM | [18] > 100 µM | [19] > 100 µM

CC1=C(/C=C/C(C)=C/C2CC(N(C)C)=CC(=O)O2)C(C)(C)CCC1 (centres undefined)
inactive: [1] 15.4 µM | [2] 12.1 µM | [3] 15.3 µM | [4] 13.6 µM | [5] 1.44 µM | [6] 16.9 µM | [7] 13.2 µM | [8] 3.56 µM | [9] 14.8 µM | [10] 11.5 µM | [11] 21 µM | [12] 16.5 µM | [13] 16.2 µM | [14] 15.2 µM | [15] 17.7 µM | [16] 16.2 µM | [17] 14.6 µM | [18] 11.9 µM | [19] 13.6 µM

Nc1nc(-c2ccc(Cl)c([N+](=O)[O-])c2)cs1
inactive: [1] 59.4 µM | [2] > 100 µM | [3] > 100 µM | [4] > 100 µM | [5] > 100 µM | [6] > 100 µM | [7] > 100 µM | [8] > 100 µM | [9] > 100 µM | [10] > 100 µM | [11] 86.5 µM | [12] 28.7 µM | [14] 68.2 µM | [15] 30.4 µM | [16] > 100 µM | [17] 40.6 µM | [18] > 100 µM | [19] > 100 µM

CCOC(=O)C(C)c1cc(C2(C)OCCO2)c(C)o1 (centres undefined)
inactive: [1] > 100 µM | [2] > 100 µM | [3] > 100 µM | [4] > 100 µM | [5] > 100 µM | [6] > 100 µM | [8] > 100 µM | [9] > 100 µM | [10] > 100 µM | [11] > 100 µM | [12] > 100 µM | [14] > 100 µM | [15] 88.9 µM | [16] > 100 µM | [17] > 100 µM | [19] > 100 µM

C/C(=N\NC(N)=S)c1ccc(/C(C)=N/NC(N)=S)cc1
inactive: [1] > 100 µM | [2] > 100 µM | [3] > 100 µM | [4] > 100 µM | [5] > 100 µM | [6] > 100 µM | [7] > 100 µM | [8] > 100 µM | [9] > 100 µM | [10] > 100 µM | [11] > 100 µM | [12] > 100 µM | [13] > 100 µM | [14] > 100 µM | [15] > 100 µM | [16] > 100 µM | [17] > 100 µM | [18] > 100 µM | [19] > 100 µM

Nc1ccc(/N=N/c2ccc(-c3ccc(/N=N/c4c(S(=O)(=O)O)cc5cc(S(=O)(=O)O)c(/N=N/c6ccc([N+](=O)[O-])cc6)c(N)c5c4O)cc3)cc2)c2cc(S(=O)(=O)O)ccc12
inactive: [1] > 100 µM | [2] > 100 µM | [3] > 100 µM | [4] > 100 µM | [5] > 100 µM | [6] > 100 µM | [7] > 100 µM | [8] > 100 µM | [9] > 100 µM | [10] > 100 µM | [11] > 100 µM | [12] > 100 µM | [13] > 100 µM | [14] > 100 µM | [15] 78.9 µM | [16] > 100 µM | [17] > 100 µM | [18] > 100 µM | [19] > 100 µM
